Source: patent US9155714B2, “Compositions comprising an aromatic alcohol and a TRPV-1 antagonist, and uses thereof” (JOHNSON & JOHNSON CONSUMER INC., priority 2013, dated 2015)
Values joined by “and” are separate entries in the source; they are usually repeats but may differ in a detail not shown here. Identical values can stand only once. Blank lines part the entries; values can stand above or below the molecule they belong to.

Tests used:
Assay in all cases: Calcium Flux Test, activity as TRPV-1 agonist
Format in all cases: cell-based
[1] = target: T1, human vanilloid receptor-1 (TRPV-1) (Homo sapiens, UniProt Q8NER1); set-up: key: **: statistically significant; n/s: not statistically significant
T1 construct: host or cells: HEK293
Experimental: (§1) The Calcium Flux Test is performed in the following manner: Recombinant HEK293 cells expressing human vanilloid receptor-1 (TRPV-1; accession number AF196175, EMD Millipore, Billerica, Mass.) are grown in D-MEM/F-12 media (Life Technologies, Grand Island, N.Y.) supplemented with 10% fetal bovine serum, 1% non essential amino acids and 400 μg/mL Geneticin (Gibco, Life Technologies). Cells are plated at a concentration of 15,000 cells per well on poly-D-lysine-coated 384 well plates and incubated overnight at 5% CO2 and 37° C. After incubation, culture media is removed from the wells and replaced with 50 μL per well of Fluo-8 No Wash dye solution (#36315, AAT Bioquest, Sunnyvale, Calif.). The Fluo-8 dye solution is prepared by mixing 20 uL of Fluo-8 NW with 30 mL of 0.33× Pluronic® F127 Plus (BASF of Ludwigshafen, Germany) in assay buffer (1×HBSS+2% of HEPES). Fluo-8 dye is incubated for 30 minutes at room temperature. Intracellular calcium (Ca^2+) flux is monitored upon exposure to aromatic alcohol in DMSO vehicle by measuring fluorescence intensity at Ex/Em 490/525 on a Functional Drug Screening System (FDSS; Hamamatsu, […]). Measurements are taken every second for a period of 4 minutes. […] Statistical differences are obtained using One Way ANOVA with Tukey Post-hoc test; statistical significance is defined as P≦0.05.
(§2) Phenoxyethanol was tested at a series of concentrations in DMSO for activity as a TRPV-1 agonist according to the Calcium Flux Test described above. Capsaicin was used as a positive control.
(§3) Maximum RFU values for treatment with phenoxyethanol or capsaisin were compared to the Maximum RFU for a DMSO vehicle alone. Concentrations of phenoxyethanol and capsaicin are reported in milimolar (mM) and nanomolar (nM), respectively.
(§4) Benzyl alcohol and sodium bicarbonate were tested using the Calcium Flux Test.
(§5) Benzyl alcohol and phenethyl alcohol were tested at a series of concentrations in DMSO for activity as a TRPV-1 agonist as described in Example 1. Concentrations of benzyl alcohol and phenethyl alcohol are reported in units of % w/v.

[2] = target: T1, human vanilloid receptor-1 (TRPV-1)
Experimental: as §1, §2, §3, §4, §5

[3] = target: T1, human vanilloid receptor-1 (TRPV-1); set-up: key: **: Statistically significant; n/s: Not statistically significant
Experimental: as §1, §2, §3, §4, §5

T1 sequence (Q8NER1 whole entry): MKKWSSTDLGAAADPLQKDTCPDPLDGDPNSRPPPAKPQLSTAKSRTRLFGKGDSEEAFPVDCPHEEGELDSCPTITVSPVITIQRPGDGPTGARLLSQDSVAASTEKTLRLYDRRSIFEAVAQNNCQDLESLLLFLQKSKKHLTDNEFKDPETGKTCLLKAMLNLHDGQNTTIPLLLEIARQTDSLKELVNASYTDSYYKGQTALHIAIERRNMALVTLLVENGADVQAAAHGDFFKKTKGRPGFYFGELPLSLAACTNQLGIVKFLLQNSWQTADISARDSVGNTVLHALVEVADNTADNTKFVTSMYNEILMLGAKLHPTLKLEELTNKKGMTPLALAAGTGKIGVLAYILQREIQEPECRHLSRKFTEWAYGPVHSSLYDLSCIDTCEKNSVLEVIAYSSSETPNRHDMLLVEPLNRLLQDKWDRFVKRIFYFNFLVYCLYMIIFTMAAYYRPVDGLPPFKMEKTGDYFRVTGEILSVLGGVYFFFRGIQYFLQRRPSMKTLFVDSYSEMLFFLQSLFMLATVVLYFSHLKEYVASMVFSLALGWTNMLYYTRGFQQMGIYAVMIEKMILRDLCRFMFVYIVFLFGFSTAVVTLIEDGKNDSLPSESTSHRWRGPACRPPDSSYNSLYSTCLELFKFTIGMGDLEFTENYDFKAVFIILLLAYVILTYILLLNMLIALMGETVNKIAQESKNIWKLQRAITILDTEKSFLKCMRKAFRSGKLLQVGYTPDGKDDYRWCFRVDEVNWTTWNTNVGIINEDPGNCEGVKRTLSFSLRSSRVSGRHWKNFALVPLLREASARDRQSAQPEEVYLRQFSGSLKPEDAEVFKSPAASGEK

P < 0.05 Compared to Vehicle ([1]; capsaicin 0.0381 nM): n/s
P < 0.05 Compared to Vehicle ([1]; capsaicin 0.1526 nM): n/s
P < 0.05 Compared to Vehicle ([1]; capsaicin 0.6104 nM): **
P < 0.05 Compared to Vehicle ([1]; capsaicin 2 nM): **
P < 0.05 Compared to Vehicle ([1]; capsaicin 10 nM): **
P < 0.05 Compared to Vehicle ([1]; capsaicin 39 nM): **
P < 0.05 Compared to Vehicle ([1]; capsaicin 156 nM): **
P < 0.05 Compared to Vehicle ([1]; capsaicin 625 nM): **
P < 0.05 Compared to Vehicle ([1]; capsaicin 2500 nM): **
P < 0.05 Compared to Vehicle ([1]; capsaicin 10000 nM): **
intracellular calcium flux in TRPV-1-transfected HEK cells (result in words) [2]: dose dependent increases
Maximum RFU (mean ± SD) ([2]; capsaicin 0.0381 nM alone): 10.19 ± 2.94 RFU
Maximum RFU (mean ± SD) ([2]; capsaicin 0.1526 nM alone): 29.34 ± 8.18 RFU
Maximum RFU (mean ± SD) ([2]; capsaicin 0.6104 nM alone): 121.32 ± 46.41 RFU
Maximum RFU (mean ± SD) ([2]; capsaicin 2 nM alone): 253.47 ± 24.63 RFU
Maximum RFU (mean ± SD) ([2]; capsaicin 10 nM alone): 348.17 ± 5.56 RFU
Maximum RFU (mean ± SD) ([2]; capsaicin 39 nM alone): 405.53 ± 11.25 RFU
Maximum RFU (mean ± SD) ([2]; capsaicin 156 nM alone): 491.07 ± 21.10 RFU
Maximum RFU (mean ± SD) ([2]; capsaicin 625 nM alone): 604.13 ± 32.46 RFU
Maximum RFU (mean ± SD) ([2]; capsaicin 2500 nM alone): 617.87 ± 34.14 RFU
Maximum RFU (mean ± SD) ([2]; capsaicin 10000 nM alone): 698.83 ± 30.57 RFU
Structure (SMILES): COc1cc(CNC(=O)CCCC/C=C/C(C)C)ccc1O [Capsaicin, capsaicin]
Maximum RFU (mean ± SD) ([2]; capsaicin 100 nM alone (0 antagonist)): 647.05 ± 33.18 RFU and 849.62 ± 7.02 RFU and 1006.91 ± 74.51 RFU
Maximum RFU (mean ± SD) ([2]; capsaicin 300 nM alone (0 nM antagonist)): 860.95 ± 33.14 RFU and 875.05 ± 55.11 RFU

intracellular calcium flux in TRPV-1-transfected HEK cells (result in words) [2]: do not Induce Calcium Flux
Maximum RFU (mean ± SD) ([2]; sodium bicarbonate 0.03125 mM): 109.99 ± 1.37 RFU
Maximum RFU (mean ± SD) ([2]; sodium bicarbonate 0.0625 mM): 102.15 ± 4.19 RFU
Maximum RFU (mean ± SD) ([2]; sodium bicarbonate 0.125 mM): 114.34 ± 6.46 RFU
Maximum RFU (mean ± SD) ([2]; sodium bicarbonate 0.25 mM): 124.90 ± 8.41 RFU
Maximum RFU (mean ± SD) ([2]; sodium bicarbonate 0.5 mM): 3.39 ± 2.66 RFU
P < 0.05 Compared to Vehicle ([3]; sodium bicarbonate 0.03125 mM): n/s
P < 0.05 Compared to Vehicle ([3]; sodium bicarbonate 0.0625 mM): n/s
P < 0.05 Compared to Vehicle ([3]; sodium bicarbonate 0.125 mM): n/s
P < 0.05 Compared to Vehicle ([3]; sodium bicarbonate 0.25 mM): **
P < 0.05 Compared to Vehicle ([3]; sodium bicarbonate 0.5 mM): n/s
Structure (SMILES): O=C([O-])O.[Na+] [Sodium Bicarbonate, sodium bicarbonate]
